The values that follow come from patent US6699880B1 (priority 1999, dated 2004).

The target of the test is T1, human m4 receptor (Homo sapiens, UniProt P08173).
T1 construct: expressed in transfected cells
T1 sequence (P08173 1-479): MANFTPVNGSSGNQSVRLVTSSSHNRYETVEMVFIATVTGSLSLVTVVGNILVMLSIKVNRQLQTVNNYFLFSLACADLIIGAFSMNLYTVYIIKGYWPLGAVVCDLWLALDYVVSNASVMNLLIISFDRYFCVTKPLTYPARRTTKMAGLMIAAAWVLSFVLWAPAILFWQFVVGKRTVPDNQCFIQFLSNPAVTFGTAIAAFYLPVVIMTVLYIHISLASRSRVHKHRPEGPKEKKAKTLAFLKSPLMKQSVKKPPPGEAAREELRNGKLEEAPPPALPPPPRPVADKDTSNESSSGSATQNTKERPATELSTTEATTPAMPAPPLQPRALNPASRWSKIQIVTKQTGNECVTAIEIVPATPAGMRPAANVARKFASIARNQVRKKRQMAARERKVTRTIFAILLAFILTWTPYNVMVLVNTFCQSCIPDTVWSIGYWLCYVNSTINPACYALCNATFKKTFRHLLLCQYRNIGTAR
Format: cell-based. As to conditions: 0.01 µM.
In the case of `C#CCn1c(=O)n(C2CCN(C3CCN(C(=O)OC)CC3)CC2)c2ccccc21` [Example 1, 1-[1-(1-methoxycarbonylpiperidin-4-yl)-piperidin-4-yl]-3-(2-propinyl)-1,3-dihydro-2H-benzimidazol-2-one], the “Agonist Activity (%) (M4 Receptors-Stimulating Activity)” value (“Agonist Activity (%)” below) stood at 91%.
As to `C=CCn1c(=O)n(C2CCN(C3CCN(C(=O)OC)CC3)CC2)c2ccccc21` [Example 2, 1-[1-(1-methoxycarbonylpiperidin-4-yl)-piperidin-4-yl]-3-(2-propenyl)-1,3-dihydro-2H-benzimidazol-2-one], the “Agonist Activity (%)” value worked out at 96%.
For `CCCCn1c(=O)n(C2CCN(C3CCN(C(=O)OC)CC3)CC2)c2ccccc21` [Example 3, 1-[1-(1-methoxycarbonylpiperidin-4-yl)-piperidin-4-yl]-3-n-butyl-1,3-dihydro-2H-benzimidazol-2-one] the value was 101%; for `COC(=O)N1CCC(N2CCC(n3c(=O)n(C)c4ccccc43)CC2)CC1` [Example 4, 1-[1-(1-methoxycarbonylpiperidin-4-yl)-piperidin-4-yl]-3-methyl-1,3-dihydro-2H-benzimidazol-2-one], 96%; for `COC(=O)N1CCC(N2CCC(n3c(=O)n(CC(F)(F)F)c4ccccc43)CC2)CC1` [Example 5, 1-[1-(1-methoxycarbonylpiperidin-4-yl)-piperidin-4-yl]-3-(2,2,2-trifluoroethyl)-1,3-dihydro-2H-benzimidazol-2-one], 90%.
As to `COC(=O)Cn1c(=O)n(C2CCN(C3CCN(C(=O)OC)CC3)CC2)c2ccccc21` [Example 6, 1-[1-(1-methoxycarbonylpiperidin-4-yl)-piperidin-4-yl]-3-(methoxycarbonylmethyl)-1,3-dihydro-2H-benzimidazol-2-one], the “Agonist Activity (%)” value came out at 92%.
For `COC(=O)N1CCC(N2CCC(n3c(=O)n(CC(C)=O)c4ccccc43)CC2)CC1` [Example 7, 1-[1-(1-methoxycarbonylpiperidin-4-yl)-piperidin-4-yl]-3-(2-oxopropyl)-1,3-dihydro-2H-benzimidazol-2-one] the value was 97%; for `COC(=O)N1CCC(N2CCC(n3c(=O)n(CCN)c4ccccc43)CC2)CC1` [Example 8, 1-[1-(1-methoxycarbonylpiperidin-4-yl)-piperidin-4-yl]-3-(2-aminoethyl)-1,3-dihydro-2H-benzimidazol-2-one], 95%; for `COC(=O)N1CCC(N2CCC(n3c(=O)n(C(C)=O)c4ccccc43)CC2)CC1` [Example 12, 1-[1-(1-methoxycarbonylpiperidin-4-yl)-piperidin-4-yl]-3-acetyl-1,3-dihydro-2H-benzimidazol-2-one], 95%.
In the case of `CCOC(=O)N1CCC(N2CCC(n3c(=O)n(S(C)(=O)=O)c4ccccc43)CC2)CC1` [Example 20, 1-[1-(1-ethoxycarbonylpiperidin-4-yl)-piperidin-4-yl]-3-(methylsulfonyl)-1,3-dihydro-2H-benzimidazol-2-one], the “Agonist Activity (%)” value is 94%.
